Experiments:
[1] = tested on: RENCA, renal cell carcinoma; settings: female, Balb/c, mouse, in vivo
Description: (§1) Animals: Balb/c mice, female; tumor: RENCA, renal cell carcinoma; therapy: day (d) 10, 14, 18, 21 intravenous (i.v.); end of trial: d 25.
(§2) The dose is relative to the quantity of doxorubicin present.

[2] = tested on: RENCA, renal cell carcinoma; experiment: RENCA (renal cell carcinoma) model, antitumoral action at approximately equitoxic dose; settings: RENCA in Balb/c mice
Description: as §1, §2

[3] = target: HSA-Cys^34-2 (conjugate of DTT-treated human serum albumin with doxorubicin-maleinimide-peptide derivative 2) (UniProt P02768)
Chain of HSA-Cys^34-2 (conjugate of DTT-treated human serum albumin with doxorubicin-maleinimide-peptide derivative 2) (P02768 whole entry, looked up, tested part not stated): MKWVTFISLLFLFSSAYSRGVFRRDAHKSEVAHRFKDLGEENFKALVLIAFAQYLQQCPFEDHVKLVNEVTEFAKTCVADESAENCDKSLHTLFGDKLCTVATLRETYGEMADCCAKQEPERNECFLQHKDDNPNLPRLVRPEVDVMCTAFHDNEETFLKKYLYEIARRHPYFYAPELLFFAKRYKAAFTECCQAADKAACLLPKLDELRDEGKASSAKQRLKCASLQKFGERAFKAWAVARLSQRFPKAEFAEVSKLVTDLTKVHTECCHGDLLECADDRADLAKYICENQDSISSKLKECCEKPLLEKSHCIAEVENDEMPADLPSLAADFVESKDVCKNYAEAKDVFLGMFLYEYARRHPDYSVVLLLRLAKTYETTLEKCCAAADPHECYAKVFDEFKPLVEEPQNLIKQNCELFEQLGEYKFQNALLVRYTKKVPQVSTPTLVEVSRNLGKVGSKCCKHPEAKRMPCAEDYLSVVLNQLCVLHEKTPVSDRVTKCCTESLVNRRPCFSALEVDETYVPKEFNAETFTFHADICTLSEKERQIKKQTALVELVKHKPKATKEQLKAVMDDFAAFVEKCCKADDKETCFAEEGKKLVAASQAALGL

Compound	Mortality (d) [1]	Visible renal tumors ([2]; FIG. 3A)	Number of pulmonary metastases, average ([2]; FIG. 3B) [metastases per mouse]	Complete remission ([2]; i.v. d 10, 14, 18, 21, end of trial d 25, approximately equitoxic doses)	liberation of DOXO-Gln-Gly-Ala-Ile due to cleavage with MMP 9 (HPLC gel chromatography, t=0 against t=30 min) [3]
COc1cccc2c1C(=O)c1c(O)c3c(c(O)c1C2=O)C[C@@](O)(C(=O)CO)C[C@@H]3O[C@H]1C[C@H](N)[C@H](O)[C@H](C)O1 [Doxorubicin, doxorubicin]	1	plainly visible renal tumors were observed in all animals	~100	no complete remissions	
matrix metalloprotease MMP 9 (trypsine/aprotinine-activated, from Calbiochem, Germany)					The liberation of DOXO-Gln-Gly-Ala-Ile due to cleavage with MMP 9 was confirmed by HPLC gel chromatography

From patent US7445764B1, “Carrier-drug conjugate” (priority 1999, dated 2008)
